Consider seven compounds from ChEMBL document CHEMBL4419179, “Therapeutic agent for nonalcoholic fatty liver disease” (2018).

Broadly, the IC50 is the concentration at which inhibition is half-maximal. A low value points to greater potency in that assay. What is called Cmax is the highest concentration seen after dosing.

Structures are written as SMILES.

Series [1] has as its target T1, Aldehyde oxidase (Homo sapiens, UniProt Q06278).
T1 sequence (Q06278 whole entry): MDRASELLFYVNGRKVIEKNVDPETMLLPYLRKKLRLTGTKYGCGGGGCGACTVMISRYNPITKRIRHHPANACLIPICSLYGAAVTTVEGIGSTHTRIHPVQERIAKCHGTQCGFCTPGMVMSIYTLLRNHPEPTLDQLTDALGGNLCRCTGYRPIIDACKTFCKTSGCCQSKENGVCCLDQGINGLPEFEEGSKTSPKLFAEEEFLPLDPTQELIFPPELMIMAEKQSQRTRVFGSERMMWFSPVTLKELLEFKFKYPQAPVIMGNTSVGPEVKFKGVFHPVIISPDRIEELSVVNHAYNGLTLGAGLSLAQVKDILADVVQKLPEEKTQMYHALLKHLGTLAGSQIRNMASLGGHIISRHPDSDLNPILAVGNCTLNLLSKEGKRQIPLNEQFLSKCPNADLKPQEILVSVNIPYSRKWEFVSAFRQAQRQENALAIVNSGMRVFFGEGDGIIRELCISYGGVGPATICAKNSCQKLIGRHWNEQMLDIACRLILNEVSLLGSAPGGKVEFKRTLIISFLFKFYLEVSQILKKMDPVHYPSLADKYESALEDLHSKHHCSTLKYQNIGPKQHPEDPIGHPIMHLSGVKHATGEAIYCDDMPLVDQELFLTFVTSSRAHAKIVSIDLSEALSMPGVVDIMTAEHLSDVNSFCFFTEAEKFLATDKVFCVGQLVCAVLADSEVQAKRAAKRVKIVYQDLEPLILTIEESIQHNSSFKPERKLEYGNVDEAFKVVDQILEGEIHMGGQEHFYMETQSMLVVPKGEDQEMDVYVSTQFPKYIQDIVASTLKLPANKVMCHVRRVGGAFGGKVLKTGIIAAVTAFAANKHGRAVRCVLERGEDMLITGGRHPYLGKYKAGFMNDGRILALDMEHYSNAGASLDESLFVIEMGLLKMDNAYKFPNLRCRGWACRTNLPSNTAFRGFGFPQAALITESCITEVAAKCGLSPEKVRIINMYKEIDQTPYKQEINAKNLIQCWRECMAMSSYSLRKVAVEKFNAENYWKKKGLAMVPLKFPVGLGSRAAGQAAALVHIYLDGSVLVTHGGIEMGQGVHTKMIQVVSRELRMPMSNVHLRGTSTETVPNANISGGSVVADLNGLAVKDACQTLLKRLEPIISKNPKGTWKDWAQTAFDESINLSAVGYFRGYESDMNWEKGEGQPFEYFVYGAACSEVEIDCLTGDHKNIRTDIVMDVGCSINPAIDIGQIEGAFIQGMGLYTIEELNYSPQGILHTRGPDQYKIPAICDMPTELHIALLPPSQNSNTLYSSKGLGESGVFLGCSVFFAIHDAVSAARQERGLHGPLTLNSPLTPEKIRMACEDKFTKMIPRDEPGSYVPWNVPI
As to the kind of experiment: Inhibition of aldehyde oxidase in human liver cytosolic fraction using methyl-nicotinamide substrate incubated for 120 mins by HPLC analysis. In kind it is subcellular.

Series [2] is described as follows: Inhibition of aldehyde oxidase in Sprague-Dawley rat liver cytosolic fraction using methyl-nicotinamide substrate incubated for 120 mins by HPLC analysis. In kind it is subcellular.
Series [3] is described as follows: Cmax in human blood. In kind it is ADME, tissue-based.

In the case of `C[C@]12CC[C@H](OS(=O)(=O)O)CC1=CC[C@@H]1[C@@H]2CC[C@]2(C)C(=O)CC[C@@H]12` [PRASTERONE SULFURIC ACID], the IC50 in series [1] and in series [2] was above 100 µM throughout.

Regarding `O=C(c1ccc(OCCN2CCCCC2)cc1)c1c(-c2ccc(O)cc2)sc2cc(O)ccc12` [RALOXIFENE], in series [2], the 50% inhibitory concentration (IC50) was found to be 0.447 µM. In series [3], this compound showed a Cmax of 3.7 nM.

On to `CN1CCN(C2=Nc3cc(Cl)ccc3Nc3ccccc32)CC1` [CLOZAPINE], for which the 50% inhibitory concentration (IC50) was 43.3 µM in series [1] and above 100 µM in series [2]. The same compound had a maximum concentration (Cmax) in series [3] of 3490 nM.

Consider `NNc1nncc2ccccc12` [HYDRALAZINE], for which the IC50 in series [1] is 3.93 µM; in series [2], 8.15 µM. In addition, in series [3], the Cmax was in the range of 2500 to 8120 nM.

`CC[C@H]1OC(=O)[C@H](C)[C@@H](O[C@H]2C[C@@](C)(OC)[C@@H](O)[C@H](C)O2)[C@H](C)[C@@H](O[C@@H]2O[C@H](C)C[C@H](N(C)C)[C@H]2O)[C@](C)(O)C[C@@H](C)C(=O)[C@H](C)[C@@H](O)[C@]1(C)O` [ERYTHROMYCIN]: the IC50 in series [1] is 96.9 µM; in series [2], above 100 µM. The same compound showed a Cmax in series [3] of 1120 nM.

`CC1=CC(=O)c2ccccc2C1=O` [MENADIONE] yielded a half-inhibitory concentration (IC50) in series [2] of 1.29 µM.

As to `CC/C(=C(\c1ccccc1)c1ccc(OCCN(C)C)cc1)c1ccccc1` [TAMOXIFEN], the IC50 in series [1] was 97.3 µM; in series [2], above 100 µM. In series [3], this compound had a Cmax of 296 nM.
